Measurements reported in the supplement of paper PMC10307832.

compound: O=C(O)C(Cc1ccccc1[N+](=O)[O-])=NNc1nc(-c2ccc(Cl)c(Cl)c2)cs1 (mixture of isomers) [4EGI-1] + COc1cccc2cc(-c3nc([C@H]4CC[C@H](C(=O)O)CC4)n4ncnc(N)c34)[nH]c12 [OSI-027] (partner 0.5 µM); assay: relative viability (nuclei count vs DMSO), 5 days (fraction); higher = more cells survive; settings: first compound 50 µM
How it was run: (§1)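 Nuclei were stained with Hoechst during a one-step fixation (final 0.05% Triton X-100, 1% formaldehyde, 1 ug/ml Hoechst) carried out 5 days after dosing, then counted on 4× images. The cells, lung cancer lines in 1536-well plates, had been dosed by pin tool the day after seeding with one drug alone or a fixed anchor-drug dose plus five library-drug doses (not always all listed) in √10 steps. Relative viability is the nuclei count in treated wells divided by that in vehicle wells, and each value is the median of duplicate plates.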

Row | Cell Line | relative viability
1 | SW 900 | 0.207

compound: CN1CCN(CC1)C2=CC(=C(C=C2)NC3=NC=C4C(=N3)N(C5=CC=CC=C5C(=O)N4C)C)OC [XMD8-85] + C[C@]1(O)C[C@@H](c2nc(-c3ccc4ccc(-c5ccccc5)nc4c3)c3c(N)nccn32)C1 [Linsitinib] (partner 1 µM); assay: as above; settings: first compound 0.08 µM
How it was run: as §1

Row | Cell Line | relative viability
2 | 201T | 1
3 | A549 | 0.602
4 | A-427 | 1.24
5 | ABC-1 | 0.825
6 | BEN | 0.692
7 | CAL-12T | 0.677
8 | COR-L23 | 0.972
9 | COR-L 105 | 0.913
10 | Calu-6 | 0.985
11 | EBC-1 | 0.683
12 | EKVX | 0.808
13 | EMC-BAC-2 | 0.851
14 | H3255 | 0.994
15 | HARA | 1.06
16 | HCC-15 | 0.867
17 | HCC-44 | 0.714

Row | Cell Line | relative viability
18 | HCC-78 | 0.594
19 | HCC-366 | 0.69
20 | HCC-827 | 0.934
21 | HOP-62 | 1.15
22 | IA-LM | 0.385
23 | LC-2-ad | 0.905
24 | LCLC-97TM1 | 0.168
25 | LCLC-103H | 1.05
26 | LK-2 | 0.524
27 | LOU-NH91 | 0.946
28 | NCI-H441 | 0.473
29 | NCI-H1299 | 0.881
30 | NCI-H1395 | 0.792
31 | NCI-H1703 | 0.496
32 | NCI-H1793 | 0.78

same assay, conditions: first compound 0.253 µM

Row | Cell Line | relative viability
33 | 201T | 1.05
34 | A549 | 0.476
35 | A-427 | 1.18
36 | ABC-1 | 0.777
37 | BEN | 0.923
38 | CAL-12T | 0.656
39 | COR-L23 | 0.989
40 | COR-L 105 | 1.02
41 | Calu-6 | 0.946
42 | EBC-1 | 0.856
43 | EKVX | 1.06
44 | EMC-BAC-2 | 0.803
45 | EPLC-272H | 1.24
46 | H3255 | 0.872
47 | HARA | 0.933
48 | HCC-15 | 0.849

Row | Cell Line | relative viability
49 | HCC-44 | 0.749
50 | HCC-78 | 0.532
51 | HCC-366 | 0.687
52 | HCC-827 | 0.975
53 | HOP-62 | 0.966
54 | IA-LM | 0.563
55 | LC-2-ad | 0.923
56 | LCLC-97TM1 | 0.218
57 | LCLC-103H | 1.03
58 | LK-2 | 0.52
59 | LOU-NH91 | 0.979
60 | NCI-H441 | 0.683
61 | NCI-H1299 | 1.06
62 | NCI-H1395 | 1.09
63 | NCI-H1703 | 1.1
64 | NCI-H1793 | 0.703

same assay, conditions: first compound 0.8 µM

Row | Cell Line | relative viability
65 | 201T | 0.994
66 | A549 | 0.579
67 | A-427 | 1.11
68 | ABC-1 | 0.755
69 | BEN | 0.802
70 | CAL-12T | 0.802
71 | COR-L23 | 1.02
72 | COR-L 105 | 0.779
73 | Calu-6 | 0.994
74 | EBC-1 | 0.753
75 | EKVX | 1.03
76 | EMC-BAC-2 | 0.793
77 | EPLC-272H | 1.02
78 | H3255 | 0.955
79 | HARA | 0.945
80 | HCC-15 | 0.843

Row | Cell Line | relative viability
81 | HCC-44 | 0.642
82 | HCC-78 | 0.445
83 | HCC-366 | 0.764
84 | HCC-827 | 1.02
85 | HOP-62 | 0.87
86 | IA-LM | 0.562
87 | LC-2-ad | 0.836
88 | LCLC-97TM1 | 0.176
89 | LCLC-103H | 1.12
90 | LK-2 | 0.498
91 | LOU-NH91 | 0.909
92 | NCI-H441 | 0.647
93 | NCI-H1299 | 0.973
94 | NCI-H1395 | 1.35
95 | NCI-H1793 | 1.04

same assay, conditions: first compound 2.53 µM

Row | Cell Line | relative viability
96 | 201T | 1.05
97 | A549 | 0.592
98 | A-427 | 1.16
99 | ABC-1 | 0.681
100 | BEN | 0.683
101 | CAL-12T | 0.808
102 | COR-L23 | 0.99
103 | COR-L 105 | 0.902
104 | Calu-6 | 0.894
105 | EBC-1 | 0.811
106 | EKVX | 1.18
107 | EMC-BAC-2 | 0.797
108 | EPLC-272H | 1.2
109 | H3255 | 0.946
110 | HARA | 0.668
111 | HCC-15 | 0.866

Row | Cell Line | relative viability
112 | HCC-44 | 0.499
113 | HCC-78 | 0.443
114 | HCC-827 | 0.97
115 | HOP-62 | 0.814
116 | IA-LM | 0.393
117 | LC-2-ad | 0.692
118 | LCLC-97TM1 | 0.199
119 | LCLC-103H | 1.19
120 | LK-2 | 0.365
121 | LOU-NH91 | 0.914
122 | NCI-H441 | 0.5
123 | NCI-H1299 | 0.981
124 | NCI-H1395 | 1.01
125 | NCI-H1703 | 0.773
126 | NCI-H1793 | 0.976

same assay, conditions: first compound 8 µM

Row | Cell Line | relative viability
127 | 201T | 1.01
128 | A549 | 0.594
129 | A-427 | 1.02
130 | ABC-1 | 0.406
131 | BEN | 0.584
132 | CAL-12T | 0.595
133 | COR-L23 | 0.497
134 | COR-L 105 | 0.372
135 | Calu-6 | 0.788
136 | EBC-1 | 0.293
137 | EKVX | 0.851
138 | EMC-BAC-2 | 0.813
139 | EPLC-272H | 0.912
140 | H3255 | 0.629
141 | HARA | 0.243
142 | HCC-15 | 0.661

Row | Cell Line | relative viability
143 | HCC-44 | 0.346
144 | HCC-78 | 0.382
145 | HCC-366 | 0.352
146 | HCC-827 | 0.974
147 | IA-LM | 0.166
148 | LC-2-ad | 0.452
149 | LCLC-97TM1 | 0.232
150 | LCLC-103H | 0.857
151 | LK-2 | 0.445
152 | LOU-NH91 | 0.751
153 | NCI-H441 | 0.388
154 | NCI-H1299 | 0.654
155 | NCI-H1395 | 1.08
156 | NCI-H1703 | 0.641
157 | NCI-H1793 | 0.907
